# From ChEMBL document CHEMBL4229482, “Design, synthesis and biological evaluation of novel spiro-pentacylamides as acetyl-CoA carboxylase inhibitors” (Bioorg Med Chem, 2018)
# Tests used:
# NCI-H1975 = test: Antiproliferative activity against human NCI-H1975 cells after 48 hrs by MTT assay; format: functional, cell-based; conditions: NCI-H1975, 48 h
# Acetyl-CoA carboxylase 2 = Acetyl-CoA carboxylase 2 (Homo sapiens, UniProt O00763); test: Inhibition of C-terminal His-tagged full length human ACC2 expressed in Baculovirus infected Sf9 insect cells using acetyl CoA as substrate preincubated for 15 mins followed by substrate addition and measured after 60 mins by ADP-Glo assay
# Chain of Acetyl-CoA carboxylase 2 (O00763 whole entry, the tested form may be a part): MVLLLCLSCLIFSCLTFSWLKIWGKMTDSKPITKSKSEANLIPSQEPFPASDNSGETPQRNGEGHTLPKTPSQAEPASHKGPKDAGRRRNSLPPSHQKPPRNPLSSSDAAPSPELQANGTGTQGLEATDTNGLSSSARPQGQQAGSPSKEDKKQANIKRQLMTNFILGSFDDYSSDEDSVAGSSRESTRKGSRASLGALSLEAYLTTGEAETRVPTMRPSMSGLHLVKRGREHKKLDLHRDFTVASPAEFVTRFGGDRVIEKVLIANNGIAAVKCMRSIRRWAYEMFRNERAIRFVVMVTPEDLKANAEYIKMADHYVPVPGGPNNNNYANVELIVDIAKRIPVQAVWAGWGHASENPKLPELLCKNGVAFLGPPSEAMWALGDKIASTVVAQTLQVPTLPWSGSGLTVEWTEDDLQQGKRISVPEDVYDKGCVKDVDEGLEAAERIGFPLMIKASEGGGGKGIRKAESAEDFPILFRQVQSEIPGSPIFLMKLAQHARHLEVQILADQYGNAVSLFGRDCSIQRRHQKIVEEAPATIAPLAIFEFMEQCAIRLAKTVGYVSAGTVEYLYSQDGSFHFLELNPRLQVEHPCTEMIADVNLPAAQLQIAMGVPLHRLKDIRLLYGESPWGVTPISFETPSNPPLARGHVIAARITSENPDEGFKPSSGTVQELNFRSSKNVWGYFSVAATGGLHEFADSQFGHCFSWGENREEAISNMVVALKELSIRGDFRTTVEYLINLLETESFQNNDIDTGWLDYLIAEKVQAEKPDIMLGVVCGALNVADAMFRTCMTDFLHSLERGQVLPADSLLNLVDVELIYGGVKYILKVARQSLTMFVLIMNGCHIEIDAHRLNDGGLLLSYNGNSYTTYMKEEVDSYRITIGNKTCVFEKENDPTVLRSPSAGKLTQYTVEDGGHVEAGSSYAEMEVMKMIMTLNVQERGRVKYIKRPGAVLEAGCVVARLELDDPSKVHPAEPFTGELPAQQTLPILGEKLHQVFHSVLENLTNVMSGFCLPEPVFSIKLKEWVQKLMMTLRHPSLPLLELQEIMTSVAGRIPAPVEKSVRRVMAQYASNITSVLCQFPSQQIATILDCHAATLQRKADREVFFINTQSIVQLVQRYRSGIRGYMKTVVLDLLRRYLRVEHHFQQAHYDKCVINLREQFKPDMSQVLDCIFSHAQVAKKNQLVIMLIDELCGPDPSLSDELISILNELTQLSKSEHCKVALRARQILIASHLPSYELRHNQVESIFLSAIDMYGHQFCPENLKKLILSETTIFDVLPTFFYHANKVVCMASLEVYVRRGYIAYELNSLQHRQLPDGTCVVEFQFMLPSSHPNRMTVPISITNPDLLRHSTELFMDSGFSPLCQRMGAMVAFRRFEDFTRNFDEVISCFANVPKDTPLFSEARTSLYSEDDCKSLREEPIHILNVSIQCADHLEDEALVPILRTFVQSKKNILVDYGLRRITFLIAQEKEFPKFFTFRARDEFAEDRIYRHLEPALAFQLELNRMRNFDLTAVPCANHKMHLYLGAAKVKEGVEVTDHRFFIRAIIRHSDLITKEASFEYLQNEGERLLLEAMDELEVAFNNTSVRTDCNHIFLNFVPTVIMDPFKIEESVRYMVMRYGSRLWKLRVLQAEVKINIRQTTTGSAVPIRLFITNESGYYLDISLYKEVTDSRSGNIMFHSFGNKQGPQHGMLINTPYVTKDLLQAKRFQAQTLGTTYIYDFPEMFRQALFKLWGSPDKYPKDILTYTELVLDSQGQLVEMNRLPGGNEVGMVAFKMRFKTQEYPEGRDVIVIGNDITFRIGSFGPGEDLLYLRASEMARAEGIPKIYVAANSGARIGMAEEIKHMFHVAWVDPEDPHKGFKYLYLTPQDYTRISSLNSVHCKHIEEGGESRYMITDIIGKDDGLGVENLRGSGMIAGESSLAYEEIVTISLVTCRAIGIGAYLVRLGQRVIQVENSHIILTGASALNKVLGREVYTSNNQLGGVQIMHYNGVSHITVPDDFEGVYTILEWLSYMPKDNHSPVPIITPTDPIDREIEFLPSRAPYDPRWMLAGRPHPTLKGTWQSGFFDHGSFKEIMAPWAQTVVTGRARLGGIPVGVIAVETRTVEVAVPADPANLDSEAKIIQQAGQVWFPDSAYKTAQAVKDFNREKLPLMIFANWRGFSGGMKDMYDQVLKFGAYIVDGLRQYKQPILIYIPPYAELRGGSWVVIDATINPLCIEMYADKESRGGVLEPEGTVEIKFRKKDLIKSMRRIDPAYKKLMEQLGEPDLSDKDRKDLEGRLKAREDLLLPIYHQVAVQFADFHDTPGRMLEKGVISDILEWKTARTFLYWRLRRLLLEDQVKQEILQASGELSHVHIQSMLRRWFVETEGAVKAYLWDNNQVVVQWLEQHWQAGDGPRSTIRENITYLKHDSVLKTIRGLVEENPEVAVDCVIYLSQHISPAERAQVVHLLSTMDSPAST
# Acetyl-CoA carboxylase 1 = Acetyl-CoA carboxylase 1 (Homo sapiens, UniProt Q13085); test: Inhibition of C-terminal His-tagged recombinant human ACC1 (1 to 2383 residues) expressed in Baculovirus infected Sf9 insect cells using acetyl CoA as substrate preincubated for 15 mins followed by substrate addition and measured after 60 mins by ADP-Glo assay
# Caco-2 = test: Antiproliferative activity against human Caco2 cells after 48 hrs by MTT assay; format: functional, cell-based; conditions: Caco-2, 48 h
# HCT-116 = test: cells; conditions: Homo sapiens, HCT-116, 48 h
# SW-620 = test: cells; conditions: Homo sapiens, SW-620, 48 h
# Description: Antiproliferative activity against human SW620 cells after 48 hrs by MTT assay
# A549 = test: cells; conditions: Homo sapiens, A549, 48 h
Compound,IC50 (NCI-H1975),IC50 (Acetyl-CoA carboxylase 2),IC50 (Acetyl-CoA carboxylase 1),IC50 (Caco-2),IC50 (HCT-116),IC50 (SW-620),IC50 (A549)
Cc1cc(C(=O)N2CCC3(CC2)CC(=O)c2nn(C(C)(C)C)cc2O3)cc2cn[nH]c12,0.21 µM,0.008 µM,0.032 µM,6.51 µM,2.43 µM,3.19 µM,0.74 µM
O=C(c1ccc2cn[nH]c2c1)N1CCC2(CC1)CC(=O)N(c1ccc(C(F)(F)F)cc1)C2,–,2.74 µM,4.73 µM,–,–,–,–
O=C(c1ccc2[nH]c3c(c2c1)CCCC3)N1CCC2(CC1)CC(=O)N(c1ccc(C(F)(F)F)cc1)C2,–,1.11 µM,1.95 µM,–,8.67 µM,4.74 µM,> 10 µM
CC(C)c1ccc(-c2nc3cc(C(=O)N4CCC5(CC4)CC(=O)N(c4ccc(C(F)(F)F)cc4)C5)ccc3[nH]2)cc1,> 10 µM,0.764 µM,1.15 µM,> 10 µM,6.21 µM,> 10 µM,1.03 µM
O=C(c1ccc2[nH]ccc2c1)N1CCC2(CC1)CC(=O)N(c1ccc(C(F)(F)F)cc1)C2,–,> 5 µM,> 5 µM,–,–,–,–
Cc1cc(C(=O)N2CCC3(CC2)CC(=O)N(c2ccc(C#N)cc2)C3)cc2cn[nH]c12,–,> 5 µM,3.99 µM,–,–,–,–
O=C(c1ccc2cc[nH]c2c1)N1CCC2(CC1)CC(=O)N(c1ccc(C(F)(F)F)cc1)C2,–,> 5 µM,4.95 µM,–,–,–,–
O=C(c1cnc2ccccc2c1)N1CCC2(CC1)CC(=O)N(c1ccc(C(F)(F)F)cc1)C2,–,> 5 µM,> 5 µM,–,–,–,–
O=C(c1ccc2cccnc2c1)N1CCC2(CC1)CC(=O)N(c1ccc(C(F)(F)F)cc1)C2,–,> 5 µM,4.92 µM,–,–,–,–
O=C(c1ccc2[nH]c(-c3ccco3)nc2c1)N1CCC2(CC1)CC(=O)N(c1ccc(C(F)(F)F)cc1)C2,0.72 µM,0.976 µM,1.05 µM,–,> 10 µM,3.26 µM,7.96 µM
Cc1cc(C(=O)N2CCC3(CC2)CC(=O)N(c2ccc(C#N)cc2F)C3)cc2cn[nH]c12,–,> 5 µM,3.56 µM,–,–,–,–
Cc1nc2cc(C(=O)N3CCC4(CC3)CC(=O)N(c3ccc(C(F)(F)F)cc3)C4)ccc2[nH]1,–,3.02 µM,2.22 µM,–,–,–,–
COC(=O)c1ccc(N2CC3(CCN(C(=O)c4cc(C)c5[nH]ncc5c4)CC3)CC2=O)cc1,5.64 µM,1.88 µM,2.24 µM,> 10 µM,> 10 µM,> 10 µM,2.11 µM
Cc1cc(N2CC3(CCN(C(=O)c4cc(C)c5[nH]ncc5c4)CC3)CC2=O)ccc1C#N,–,3.77 µM,2.01 µM,–,–,–,–
O=C(c1ccc2[nH]c(-c3ccccc3)nc2c1)N1CCC2(CC1)CC(=O)N(c1ccc(C(F)(F)F)cc1)C2,0.38 µM,0.397 µM,0.527 µM,5.42 µM,1.22 µM,2.05 µM,1.92 µM
O=C(c1ccc2[nH]c3c(c2c1)CCC3)N1CCC2(CC1)CC(=O)N(c1ccc(C(F)(F)F)cc1)C2,–,3.48 µM,4.27 µM,–,–,–,–
O=C(c1ccc2ncccc2c1)N1CCC2(CC1)CC(=O)N(c1ccc(C(F)(F)F)cc1)C2,–,> 5 µM,> 5 µM,–,–,–,–
Cc1cc(C(=O)N2CCC3(CC2)CC(=O)N(c2ccc(C(=O)O)cc2)C3)cc2cn[nH]c12,–,4.65 µM,2.79 µM,–,–,–,–
Cc1cc(C(=O)N2CCC3(CC2)CC(=O)N(c2ccc(C(F)(F)F)cc2)C3)cc2cn[nH]c12,> 10 µM,0.944 µM,1.2 µM,> 10 µM,8.67 µM,> 10 µM,> 10 µM
O=C(c1ccc2[nH]c(-c3ccncc3)nc2c1)N1CCC2(CC1)CC(=O)N(c1ccc(C(F)(F)F)cc1)C2,0.39 µM,1.24 µM,2.65 µM,> 10 µM,7.64 µM,7.24 µM,3.49 µM
CCCc1nc2cc(C(=O)N3CCC4(CC3)CC(=O)N(c3ccc(C(F)(F)F)cc3)C4)cc(C)c2[nH]1,0.27 µM,1.94 µM,1.69 µM,> 10 µM,4.21 µM,1.82 µM,> 10 µM
